The values below come from US11045519B2, “Arginine-rich polypeptide compositions and methods of using same” (UNM Rainforest Innovations, priority 2017, dated 2021).

Entries after “also recorded” stand apart in the source; their conditions may differ.

Holding throughout (format): cell-based
The test system of assay [1] is authentic HPV16 virions. Put plainly: Authentic HPV16 virion infection of HaCaT cells, RT-qPCR of spliced E1^E4 mRNA. Particulars: 0.5 μM, 100 vge/cell, three days post-infection. The protocol: FIG. 10. PolyR inhibits activity of authentic HPV16 virions. HaCaT cells were infected with authentic HPV16 virions (100 vge/cell) in the presence or absence of 500 nM polyR. At three days post-infection, total RNA was extracted from cells using TRIzol reagent (Invitrogen, Thermo Fisher Scientific, Inc., Carlsbad, Calif.). Equal amount of the RNA of polyR-treated and untreated cells was subjected to reverse transcription. Each RT reaction was divided into three qPCR amplifications of 45 cycles targeting the spliced transcripts of cellular β-actin or HPV16 cDNAs. Primers E7.4A and E4B target an amplimer derived from spliced E1^E4 RNA, as previously described (Patterson et al., 2005. J Virol 79:6838-6847).
To validate the effect of polyR was not simply related to pseudovirus infections, HaCaT cells were infected with authentic HPV16 virions carrying viral genomes (100 vge/cell) in the presence or absence of 0.5 μM polyR. At three days post-infection, the cells were harvested and total RNA was extracted using TRIzol reagent (Invitrogen, Thermo Fisher Scientific, Inc., Carlsbad, Calif.). Nucleic acid concentrations were determined by optical density measurements. […] Quantification of cDNA derived from the spliced viral E1^E4 mRNA via qPCR was analyzed in triplicate samples from multiple separate experimental infections.
On the technique in general: In qPCR the cycle at which signal appears reflects the starting amount.

The test system of assay [2] is HPV16 PsVs. The experiment in a line: HPV16 PsV binding to CHO mutant cells (L1 immunoblot). As to conditions: 3 μM, 30 min pre-treatment. The procedure:
FIG. 7. HPV binding and infection of CHO mutant cells in the presence of polyR. CHO mutant pgsA-745 cells (GAG deficient) and CHO mutant pgsD-677 cells (HS deficient) were grown in Ham's F12 medium supplemented with 10% fetal bovine serum and 1% Glutamax (Invitrogen, Thermo Fisher Scientific, Inc., Carlsbad, Calif.). (A) Cells were incubated with 3 μM polyR in the medium for 30 minutes before adding HPV16 PsVs and incubating at 4° C. for one hour. After extensive washing with PBS, cells were lysed and analyzed for the content of L1, as described in FIG. 4A. (B) Semi-confluent CHO-pgsA were treated with 3 μM polyR for one hour prior to adding HPV16 PsVs. Infection was scored at 24 hours post infection as described in FIG. 1. (C) Semi-confluent CHO-pgsD cells were treated with 3 μM polyR for one hour prior to adding HPV16 PsVs. Infection was scored at 24 hours post infection as described in FIG. 1.
To test the effects of polyR on cells that differentially express heparan sulfate versus heparan sulfonated proteoglycans, like glycosaminoglycans (GAGs), genetically mutant clones of Chinese hamster ovary (CHO) cell lines were used. […] First, the effect of polyR on HPV16 PsV binding to these mutant cells was measured.
(Immunoblotting shows a protein as a band on a membrane.)

The subject of assay [3] is HPV16 PsVs. The experiment in a line: Post-attachment and time-course HPV16 PsV infection of HaCaT cells. The procedure:
FIG. 6. PolyR inhibits HPV16 PsV infection at pre-attachment and post-attachment stages. (A) Infection of HaCaT cells with HPV16. Semi-confluent HaCaT cells were left untreated with polyR (H16) or exposed to HPV16 PsV 1 h before (polyR/H16) or one hour after […] (H16/PolyR) treatment, were subjected to infectivity measurements after a 24-hour incubation at 37° C. (as described in FIG. 1). (B) Time-course experiments of HPV infection in the absence or presence of polyR. Untreated control cells were infected with HPV16 PsV (HPV16). HaCaT cells were treated with 1 μM polyR before (+1 h polyR/HPV16), concurrently (0 h polyR/HPV16) or at one hour, two hours, four hours, six hours, or eight hours post-attachment of HPV16 PsVs. Infection was scored at 24 hours post HPV attachment and shift to 37° C.
FIG. 18. PrS post-attachment effect on HPV infection. HaCaT cell were incubated with 500 vge/cell HPV PsVs at RT for one hour before addition of 1.5 μM PrS complexed with 0.1% HMW HA or with 3 μM LMW HA. Infection scored 24 after infection as described in FIG. 12.
FIG. 20. Time-course experiments of HPV infection in the presence of PrS or HA:PrS complex. (A) PrS; (B) HA:PrS complex. HaCaT cells were treated with 2 μM PrS or 2 μM PrS associated with 0.1% HMW HA at indicated times post-attachment of HPV16 PsVs, and infection was scored 24 hours after infection as described in FIG. 12. Time-point zero represents initial PsV inoculation.
The data above show clearly that polyR can inhibit HPV binding to cells and infection, but that polyR cannot displace HPV after bound to cells. To determine whether polyR can alter HPV infectivity if it is present after HPV is bound to cells, the infection levels of virus-exposed cells that are either pre-treated with polyR before virus binding, polyR-treated after HPV binding, or untreated with polyR were compared. […] This indicates a second mechanism whereby polyR can block HPV infection after virus is bound to cells.
Next, the effectiveness of polyR treatment in blocking infection when added at increasing times post HPV binding to cells was tested. This time-course experiment confirmed that polyR affects post-attachment stages of virus infection. HaCaT cells were treated with polyR one hour prior to virus exposure, concurrently with virus exposure, and at increasing times after virus was bound and unbound virus was removed. Infection efficiency was measured after a 24-hour incubation at 37° C. The cells infected with HPV16 PsV in the absence of polyR (FIG. 6B, HPV16) was considered as 100% infection efficiency.
To investigate PrS post-attachment effect on infection, HaCaT cell were exposed with HPV PsVs at room temperature for one hour before addition of PrS complexed with heavy molecular weight (HMW) HA or with low molecular weight (LMW) HA.
Time-course experiments in which HaCaT cells were exposed to PrS or PrS:HA complex at various times after attachment with HPV16 PsVs confirmation this mechanism.

Regarding poly-L-arginine [polyR], the “inhibition of HPV16 infection (RT-qPCR)” value in assay [1] is approximately 90%. The “HPV16 PsV binding” value is “did not prevent HPV binding; also recorded: increased binding was observed” in assay [2] (CHO pgsA-745 cells (GAG deficient)) and “did not prevent HPV binding” in assay [2] (CHO pgsD-677 cells (HS deficient)). Also, the “inhibition of HPV16 infection” value in assay [3] (1 μM, added 1 h before virus exposure) is more than 95%; in assay [3] (1 μM, added 1 h to 2 h post HPV binding) it was “Strong infection inhibition”; in assay [3] (1 μM, added 6 h to 8 h post infection) it was “Only mild inhibition”; in assay [3] (1 μM, added simultaneously with HPV (0 h)) it was “same magnitude of infection inhibition”. Moreover, the “reduction in HPV infection” value in assay [3] (1 μM, added 4 h post infection) is listed as “approximately 75%”. For the same substance, in assay [3] (2 μM, 1 h after versus 1 h before HPV16 PsV, 24 h), the “inhibition of infection when added after virus binding versus before” value is given as “as effective at inhibiting HPV infection when added after virus was bound to cells as it was when added prior to virus exposure”.
